Measurements: patent publication US8716289B2, “Carbamate derivatives of alkyl-heterocycles, preparation thereof and therapeutic use thereof” (Sanofi, priority 2008, dated 2014)

Legend:
[1] = molecular target: T1, enzyme FAAH (Fatty Acid Amide Hydrolase) (Mus musculus, UniProt O08914); assay: FAAH radioenzymatic test, hydrolysis of anandamide [ethanolamine 1-3H] (Protocol 1); assay type: biochemical; settings: mouse brain membrane homogenate, anandamide 10 μM, preincubation 20 min at 25° C.
T1 construct: The membrane homogenates are prepared extemporaneously by homogenizing the tissues; from tissue; host or cells: mouse brain (minus the cerebellum), membrane homogenate
T1 sequence (O08914 1-579): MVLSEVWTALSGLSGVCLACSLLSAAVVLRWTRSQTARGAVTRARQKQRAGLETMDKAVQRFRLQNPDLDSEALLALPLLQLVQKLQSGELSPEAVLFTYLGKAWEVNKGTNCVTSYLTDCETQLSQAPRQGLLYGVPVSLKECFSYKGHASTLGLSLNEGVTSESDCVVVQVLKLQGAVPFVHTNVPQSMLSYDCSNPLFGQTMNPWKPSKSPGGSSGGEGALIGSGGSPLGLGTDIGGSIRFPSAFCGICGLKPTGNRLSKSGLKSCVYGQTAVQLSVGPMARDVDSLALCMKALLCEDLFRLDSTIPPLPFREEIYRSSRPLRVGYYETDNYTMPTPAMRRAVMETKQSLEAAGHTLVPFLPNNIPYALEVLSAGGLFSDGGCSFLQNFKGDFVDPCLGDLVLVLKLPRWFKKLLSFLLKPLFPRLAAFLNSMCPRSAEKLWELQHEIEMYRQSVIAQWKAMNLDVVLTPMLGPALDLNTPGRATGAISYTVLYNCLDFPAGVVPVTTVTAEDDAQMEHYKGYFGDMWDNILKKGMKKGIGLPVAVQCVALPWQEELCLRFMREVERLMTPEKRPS
Description: Thus, mouse brains (minus the cerebellum) are removed and stored at −80° C. The membrane homogenates are prepared extemporaneously by homogenizing the tissues using a Precellys® machine in reaction buffer (10 mM Tris-HCl, pH=8, 150 mM NaCl and 1 mM ethylenediaminetetraacetic acid (EDTA)). The enzymatic reaction is performed in 96-well Multiscreen filtration plates in a final volume of 70 μL. Reaction buffer supplemented with fatty acid-free bovine serum albumin (BSA, 1 mg/ml) is used for the enzymatic reaction and the dilution of the compounds and of the anandamide [ethanolamine 1-^3H]. The reaction buffer containing BSA (43 μL/well), the diluted test compounds at different concentrations (7 μL/well containing 1% DMSO) and the membrane preparation (10 μL/well, i.e. […] of tissue per test) are successively added to the wells. After preincubation for 20 minutes of the compounds with the enzyme at 25° C., the reaction is started by adding anandamide [ethanolamine 1-^3H]. (Specific activity of 15-20 Ci/mmol) diluted with cold anandamide (10 μL/well, final concentration of 10 μM, 0.01 ρCi per test). After incubation for 20 minutes at 25° C., the enzymatic reaction is stopped by adding a […] solution of active charcoal prepared in 1.5M NaCl buffer and 0.5 M HCl (50 μL/well). The mixture is stirred for 10 minutes and the aqueous phase containing the ethanolamine [1-^3H] is then recovered by filtration under vacuum and counted by liquid scintillation.

[2] = system: male OF1 mice; assay: test of analgesia: PBQ-induced abdominal stretching; assay type: in vivo, mouse; settings: 30 mg/kg p.o. at 120 minutes
Description: The in vivo activity of the compounds of the invention was evaluated in a test of analgesia.
Thus, the intraperitoneal (i.p.) administration of PBQ (phenylbenzoquinone, 2 mg/kg in 0.9% sodium chloride solution containing 5% ethanol) to male OF1 mice weighing 25 to 30 g causes abdominal stretching, on average 30 torsions or contractions within a period of 5 to 15 minutes after injection. The test compounds are administered orally (p.o.) or intraperitoneally (i.p.) suspended in Tween 80 at 0.5%, 60 minutes or 120 minutes before the administration of PBQ. Under these conditions, the compounds of the invention that are the most powerful reduce by 30% to 80% the number of stretches induced with PBQ, over a dose range of between 1 and 30 mg/kg.

[3] = molecular target: T1, enzyme FAAH (Fatty Acid Amide Hydrolase); assay: FAAH fluorescent enzymatic test, hydrolysis of AAMC (Protocol 2); assay type: biochemical; settings: mouse brain homogenate, AAMC 10 μM, preincubation 20 min at 25° C.
Description: Thus, mouse brains (minus the cerebellum) are withdrawn and stored at −80° C. The brain homogenates are prepared extemporaneously by homogenizing the tissues using a Precellys® machine in reaction buffer (10 mM Tris-HCl, pH=8, 150 mM NaCl and 1 mM ethylenediaminetetraacetic acid (EDTA)). The enzymatic reaction is performed in black polystyrene 384-well plates in a final volume of 50 μL. Reaction buffer supplemented with fatty acid-free bovine serum albumin (BSA, 1 mg/ml) is used for the enzymatic reaction, the dilution of the compounds and the dilution of the AAMC. Reaction buffer containing the BSA (25 μL/well), the diluted test compounds at different concentrations (5 μL/well containing 1% DMSO) and the membrane preparation (10 μL/well, i.e. 200 μg of tissue per test) are successively added to the wells. After preincubation for 20 minutes of the compounds with the enzyme at 25° C., the reaction is started by adding 10 μL of substrate per well (AAMC, final concentration of 10 μM). After incubation for 40 minutes, the aminomethyl coumarin (AMC) produced is measured by fluorescent counting (Envision plate reader).

Row | Structure (SMILES) | melting point | IC50 [1] | reduction of the number of stretches induced with PBQ [2] | IC50 [3]
1 | O=C(NCCC1CCN(c2ccc3cc(Cl)ccc3n2)CC1)OCc1nnc(-c2ccc(F)cc2)o1 [Compound 12, 5-(4-fluorophenyl)[1,3,4]oxadiazol-2-ylmethyl 2-[1-(6-chloroquinolin-2-yl)piperidin-4-yl]ethylcarbamate] | 169 to 170 °C | 47 nM | – | –
2 | NC(=O)c1cc(COC(=O)NCCC2CCN(c3ccc(-c4ccc(F)cc4)cn3)CC2)on1 [Compound 19, 3-carbamoylisoxazol-5-ylmethyl 2-[5′-(4-fluorophenyl)-3,4,5,6-tetrahydro-2H-[1,2′]bipyridinyl-4-yl]ethylcarbamate] | 202 to 204 °C | 1 nM | 30% | –
3 | CCC1(CCNC(=O)OCc2cc(C(=O)NC)no2)CCN(c2cnc3cc(Cl)ccc3n2)CC1 [Compound 64] | – | 3 nM | – | –
4 | CNC(=O)c1cc(COC(=O)NCCC2CCN(c3ccc(-c4ccc(F)cc4)cc3)CC2)on1 [Compound 29, 3-methylcarbamoylisoxazol-5-ylmethyl 2-[1-(4′-fluorobiphenyl-4-yl)piperidin-4-yl]ethylcarbamate] | 212 to 215 °C | – | – | 0.7 nM
5 | CCc1noc(COC(=O)NCCC2CCN(c3ccc(-c4ccc(F)cc4)cn3)CC2)n1 [Compound 5, 3-ethyl[1,2,4]oxadiazol-5-ylmethyl 2-[5′-(4-fluorophenyl)-3,4,5,6-tetrahydro-2H-[1,2′]bipyridinyl-4-yl]-ethylcarbamate] | 110 to 112 °C | 2 nM | – | –
6 | CN1CCN(C(=O)c2cc(COC(=O)NCCC3CCN(c4ccc(-c5ccc(F)cc5)cn4)CC3)on2)CC1 [Compound 46] | – | 16 nM | – | –
7 | O=C(NCCC1CCN(c2ccc(-c3ccc(F)cc3)cn2)CC1)OCc1csnn1 [Compound 9, [1,2,3]thiadiazol-4-ylmethyl 2-[5′-(4-fluorophenyl)-3,4,5,6-tetrahydro-2H-[1,2′]bipyridinyl-4-yl]ethylcarbamate] | 139 to 141 °C | 2 nM | – | –
8 | NC(=O)c1cc(COC(=O)NCCC2CCN(c3ccc4cc(Cl)ccc4n3)CC2)on1 [Compound 1, 3-carbamoylisoxazol-5-ylmethyl 2-[1-(6-chloroquinolin-2-yl)piperidin-4-yl]ethylcarbamate] | 220 to 222 °C | 1 nM | 55% | –
9 | Cn1ncnc1COC(=O)NCCC1CCN(c2ccc3cc(Cl)ccc3n2)CC1 [Compound 2, 2-methyl-2H-[1,2,4]triazol-3-ylmethyl 2-[1-(6-chloroquinolin-2-yl)piperidin-4-yl]ethylcarbamate] | 122 to 124 °C | 40 nM | – | –
